Values after ≈ are worked out from the molar mass of the structure shown.
Experiments:
[1] = tested on: C. neoformans H99; assay: Antifungal susceptibility testing, CLSI broth microdilution (Example 496/497); type: cell-based, Cryptococcus neoformans
Source text: (§1) Isolates tested. C. neoformans strains H99, DUMC 118.00, DUMC 158.03 and C. gattii strains R272, and RSA-MW-3515 were obtained from Duke University. C. albicans 90028, A. fumigatus MYA3626, C. neoformans 14116, C. neoformans 76484 and the pathogenic Cryptococcus reference strains panel (ATCC MP-11) were obtained from American Type Culture Collection (ATCC, Manassas, Va., USA). The MP-11 panel consists of strains representing eight molecular types and three subtypes of C. neoformans and C. gattii.
(§2) Antifungal susceptibility testing. To establish antimicrobial activity, broth microdilution susceptibility testing was performed according to Clinical and Laboratory Standards Institute (CLSI) guidelines M27-A3 for yeasts and M38-A2 for molds. Compound 2 and analogs were first diluted in DMSO to obtain intermediate dilutions. These were further diluted in microtiter plates to obtain a final concentration of 2 to 0.002 μg/mL. 1 μl of DMSO was added to “No drug” control wells. The solutions were mixed on a plate shaker for 10 mins and plates incubated at 35° C. for 40 to 48 h (C. albicans, A. fumigatus) and 72 h (C. neoformans). The minimum concentration that led to 50% reduction in fungal growth as compared to the control (with the aid of a reading mirror) was determined as the minimum inhibitory concentration (MIC) for C. albicans and C. neoformans. The minimum concentration that led to shortening of hyphae as compared to hyphal growth in DMSO control wells was determined as the minimum effective concentration (MEC) for A. fumigatus (as read for echinocandins). The use of the MIC and MEC endpoints for Compound 2 against yeasts and molds, respectively has been described previously.

[2] = tested on: C. gattii WM276; assay: as above; type: cell-based, Cryptococcus gattii; settings: 50% reduction in fungal growth
Source text: as §1, §2

[3] = tested on: C. albicans 90028; assay: as above; type: cell-based, Candida albicans; settings: MIC, 50% reduction in growth, 40 to 48 h
Source text: as §1, §2

[4] = tested on: A. fumigatus MYA3626; assay: as above; type: cell-based, Aspergillus fumigatus; settings: MEC, shortening of hyphae, 40 to 48 h
Source text: as §1, §2

[5] = tested on: strains of C. neoformans and C. gattii; assay: Activity vs Cryptococcus, summary over the strains tested; type: cell-based, Cryptococcus neoformans and Cryptococcus gattii; settings: panel of 18 isolates of C. neoformans and C. gattii
Source text: The activity of Gwt1 inhibitors against susceptible and FLC non-susceptible/resistant strains.
as §1
Antifungal susceptibility testing. To establish antimicrobial activity, broth microdilution susceptibility testing was performed according to Clinical and Laboratory Standards Institute (CLSI) guidelines M27-A3 for yeasts and M38-A2 for molds. Compound 2 and analogs were first diluted in DMSO to obtain intermediate dilutions. These were further diluted in microtiter plates to obtain a final concentration of 2 to 0.002 μg/mL. 1 μl of DMSO was added to “No drug” control wells. The solutions were mixed on a plate shaker for 10 mins and plates incubated at 35° C. for 40 to 48 h (C. albicans, A. fumigatus) and 72 h (C. neoformans). The minimum concentration that led to 50% reduction in fungal growth as compared to the control (with the aid of a reading mirror) was determined as the minimum inhibitory concentration (MIC) for C. albicans and C. neoformans.

[6] = tested on: C. neoformans H99; assay: Synergy with FLC, standard microtiter checkerboard dilution; type: cell-based, Cryptococcus neoformans; settings: synergy = FICI <0.5, MIC read at 50% inhibition
Procedure: Gwt1 inhibitors are synergistic with FLC. […] Importantly, no antagonism was observed.
as §2

[7] = tested on: Candida tropicalis strains; settings: cited from earlier work
[8] = tested on: strains of C. albicans; settings: cited from earlier work
[9] = mouse, in vivo; cited from earlier work
[10] = tested on: C. neoformans strain H99; assay: Murine model of cryptococcal meningitis, Compound 1 alone and with FLC (no ABT), CD-1 mice; type: in vivo, Cryptococcus neoformans; settings: Compound 1 390 mg/kg PO thrice daily or FLC 80 mg/kg/day IP, 7 days, n=10
Procedure: Treatment was initiated within 1 h after infection.
Mice were weighed daily and observed for acute and chronic adverse symptoms. […] Fungal burden data were log10 transformed and evaluated using Kruskal-Wallis tests with Dunn's Multiple Comparison Test for Post-hoc analysis (Prism 5; GraphPad Software, Inc., San Diego, Calif.).

[11] = tested on: 46 strains of C. neoformans; settings: global study; cited from earlier work
[12] = tested on: C. neoformans US isolates; settings: cited from earlier work

For `Nc1ncccc1-c1cc(Cc2ccc(COc3ccccn3)cc2)no1` [Compound 2], the “MIC C. neoformans H99” value ([1]; 50% reduction in fungal growth, 72 h, 35° C.) was 0.25 µg/mL (≈ 0.698 µM), the “MIC C. gattii WM276” value [2] was 0.125 µg/mL (≈ 0.349 µM) and the “MIC or MEC C. albicans 90028” value [3] was 0.008 µg/mL (≈ 0.0223 µM). For the same compound, the “MIC or MEC A. fumigatus MYA3626” value [4] was 0.008 µg/mL (≈ 0.0223 µM), the MIC90 [5] was 0.5 µg/mL (≈ 1.4 µM) and the “FICI in combination with FLC” value [6] was 0.37. The “strains with synergy with FLC” value [7] was 9 of 10, the “strains with synergy with FLC” value [8] was 2 of 20 and the half-life in mice [9] was 1.40 to 2.75 h.
For `OC(Cn1cncn1)(Cn1cncn1)c1ccc(F)cc1F` [FLC, fluconazole], the MIC ([1]; Cryptococcus neoformans, H99, 72 h, read-out: MIC C. neoformans H99) was 2 µg/mL (≈ 6.53 µM), the MIC ([2]; Cryptococcus gattii, WM276) was 1 µg/mL (≈ 3.27 µM) and the “reduction in lung fungal burden vs untreated control, monotherapy” value [10] was 1.30 log10 CFU/g.
For `OC(Cn1cncn1)(Cn1cncn1)c1ccc(F)cc1F` [FUC], the “MIC90 versus 46 strains of C. neoformans” value [11] is given as 4 µg/mL.
In the case of `OC(Cn1cncn1)(Cn1cncn1)c1ccc(F)cc1F` [fluconazole, Fluconazole], the “reduction in brain fungal burden vs control group, monotherapy” value [10] is reported as 1.04 log10 CFU/g.
In the case of `C[C@@H](c1nc(-c2ccc(C#N)cc2)cs1)[C@](O)(Cn1cncn1)c1cc(F)ccc1F` [isavuconazole], the “MIC90 versus 46 strains of C. neoformans” value [11] is given as 0.06 µg/mL.
For `CC(=O)N1CCN(c2ccc(OCC3COC(Cn4ccnc4)(c4ccc(Cl)cc4Cl)O3)cc2)CC1` (stereo not shown) [ketoconazole], the “MIC90 versus C. neoformans, US isolates” value [12] is given as 0.06 µg/mL (≈ 0.113 µM).
